Assay results as given in patent publication US20260216294A1, “BETA 2-ADRENERGIC RECEPTOR AGONISTS FOR TREATMENT OR PREVENTION OF MUSCLE WASTING” (ATROGI AB, priority 2023, published 2026).

Tests used:
L6-myotubes [1] = test: Measurement of intracellular cAMP levels in differentiated L6-myotubes (Biological Example 3); assay type: cell-based; settings: 0.25 h
Description: (§1) Compounds described in publications referenced and incorporated herein were screened in accordance with the procedures outlined in Biological example 2 and Biological example 3.
Differentiated L6-myotubes were serum-starved overnight and stimulated with isoprenaline or the test compound with a final concentration of 1×10^−5 M, for 15 min in stimulation buffer (HBSS supplemented with 1% BSA, 5 mM HEPES and 1 mM IBMX, pH 7.4). The medium was aspirated and 100 μL of 95% EtOH was added to each well of the 24-well plate and cells were kept at −20° C. overnight. The EtOH was allowed to evaporate and 500 μL of lysis buffer (1% BSA, 5 mM HEPES and 0.3% Tween-20, pH 7.4) was added to each well. The plate was kept at −80° C. for 30 min and then at −20° C. until the day of detection when the samples were thawed. Intracellular cAMP levels were detected using an alpha screen cAMP kit (6760635D from Perkin Elmer).

L6-myotubes [2] = test: Glucose uptake in differentiated L6-myotubes (Biological Example 2); assay type: cell-based; settings: for Emax at 10 µM: read-out: Biological example 2 (GU)
Description: as §1
Differentiated L6-myotubes were serum-starved overnight in medium containing 0.5% fatty-acid free BSA and stimulated with isoprenaline or the test compound, with a final concentration of 1×10^−5 M. After 1 h 40 min the cells were washed with warm glucose free medium or PBS twice and another portion of agonist was added to the glucose free medium. After 20 min the cells were exposed to 50 nM ^3H-2-deoxyglucose for 10 min before washed with ice cold glucose free medium or PBS three times and lysed with 0.2 M NaOH, 400 μL/well, for 1 h at 60° C. The cell lysate was mixed with 4 mL scintillation buffer (Emulsifier Safe, Perkin Elmer) and the radioactivity was detected in a […] (Tri-Carb 4810TR, Perkin Elmer).

[3] = intracellular cAMP in differentiated L6-myotubes, compound at 10 μM, activity relative to isoproterenol at 10 μM
[4] = glucose uptake in differentiated L6-myotubes, compound at 10 μM, activity relative to isoproterenol at 10 μM
[5] = intracellular cAMP, compound at 10 μM relative to isoproterenol at 10 μM
[6] = glucose uptake, compound at 10 μM relative to isoproterenol at 10 μM

| Structure (SMILES) | Emax at 10 µM (L6-myotubes [1]; [3]) [%] | Emax at 10 µM (L6-myotubes [2]; [4]) [%] | Emax at 10 µM (L6-myotubes [1]; [5]) [%] | Emax at 10 µM (L6-myotubes [2]; [6]) [%] | glucose uptake (L6-myotubes [2]; L6-myotubes, FIGS. 2a-2d) |
| --- | --- | --- | --- | --- | --- |
| CC(=O)N[C@H]1CC[C@H](CCC(C)(C)NC[C@H](O)c2cncc(F)c2)CC1 [Compound 361, N-[(1R,4r)-4-{3-[(R)-2-(5-fluoro-3-pyridyl)-2-hydroxyethylamino]-3-methylbutyl}cyclohexyl] acetamide] | < 25 | > 75 |  |  |  |
| CC(C)(CC[C@H]1CC[C@@H](O)CC1)NC[C@H](O)c1cccc(F)c1 [Compound 295, (R)-2-{1,1-dimethyl-3-[(1s,4R)-4-hydroxycyclohexyl]propylamino}-1-(m-fluorophenyl)-1-ethanol] | < 25 | > 75 |  |  |  |
| CN(C)S(=O)(=O)[C@H]1CC[C@H](CC(C)(C)NC[C@H](O)c2cccc(F)c2)CC1 [Compound 464] | 25 to 50 | 25 to 50 |  |  |  |
| CC(C)(C[C@H]1CC[C@@H](O)CC1)NC[C@H](O)c1cncc(F)c1 [Compound 301, (R)-2-{1,1-dimethyl-2-[(1s,4S)-4-hydroxycyclohexyl]ethylamino}-1-(5-fluoro-3-pyridyl)-1-ethanol] | < 25 | > 75 |  |  |  |
| CNS(=O)(=O)[C@H]1CC[C@@H](CC(C)(C)NC[C@H](O)c2cncc(F)c2)CC1 [Compound 495] | < 25 | 50 to 75 |  |  |  |
| CC1(C)C[C@@H]([C@@H](O)c2cccc(F)c2)N1 [Compound 199] | < 25 | 25 to 50 |  |  |  |
| C[C@H]1CC[C@@H]([C@H](O)c2cccc(O)c2)N1 (racemic) [Compound 40, Racemic mixture of m-{(R)-[(2S,5S)-5-methyl-2-pyrrolidinyl] hydroxymethyl} phenol and m-{(S)-[(2R,5R)-5-methyl-2-pyrrolidinyl] hydroxymethyl} phenol] |  |  | < 25 | 50 to 75 |  |
| CCCCNC[C@H](O)c1cccc(F)c1 [Compound 47, (R)-2-(butylamino)-1-(m-fluorophenyl)-1-ethanol] |  |  | < 25 | 50 to 75 |  |
| CO[C@@H]1CCC[C@H](C(C)(C)NC[C@H](O)c2cncc(F)c2)C1 [Compound 257, (R)-2-{1-[(1S,3R)-3-methoxycyclohexyl]-1-methylethylamino}-1-(5-fluoro-3-pyridyl)-1-ethanol] | < 25 | 50 to 75 |  |  |  |
| CCC[C@@H]1CCC[C@H]([C@H](O)c2cccc(O)c2)N1 [Compound 45] |  |  | < 25 | > 75 |  |
| CO[C@@H]1CCC[C@H](C(C)(C)NC[C@H](O)c2cccc(F)c2)C1 [Compound 255, (R)-2-{1-[(1S,3R)-3-methoxycyclohexyl]-1-methylethylamino}-1-(m-fluorophenyl)-1-ethanol] | < 25 | > 75 |  |  |  |
| CCCCNCC(O)c1cc(Cl)c(N)c(Cl)c1 (stereo not shown) [Compound 29, 1-(4-amino-3,5-dichlorophenyl)-2-(butylamino)-1-ethanol] |  |  | 25 to 50 | > 75 |  |
| CCC[C@H]1CCC[C@H]([C@H](O)c2cc(F)cc(F)c2)N1 [Compound 68] |  |  | < 25 | 50 to 75 |  |
| O[C@H](c1cncc(F)c1)C12CCC(COCc3ccc(F)cc3)(CC1)N2 [Compound 443, (R)-(4-{[(p-fluorophenyl)methoxy]methyl}-7-azabicyclo[[2.2.1]]hept-1-yl)(5-fluoro-3-pyridyl)methanol] | 25 to 50 | > 75 |  |  |  |
| O[C@@H](c1ccccc1F)C12CCC(CCc3cccnc3)(CC1)N2 [Compound 547, (S)-(o-fluorophenyl){4-[2-(3-pyridyl)ethyl]-7-azabicyclo[[2.2.1]]hept-1-yl}methanol] |  | > 75 |  |  |  |
| CCC[C@H]1CCC[C@H]([C@H](O)c2ccccc2Cl)N1 [Compound 135, (R)-[(2R,6S)-6-propyl-2-piperidyl](o-chlorophenyl)methanol] |  |  | < 25 | 25 to 50 |  |
| CCCCNCC(O)c1cccnc1 (stereo not shown) [Compound 49, 2-(butylamino)-1-(3-pyridyl)-1-ethanol] |  |  | < 25 | 50 to 75 |  |
| CO[C@H]1CC[C@H](CCNC[C@H](O)c2cncc(F)c2)CC1 [Compound 225, (R)-1-(5-fluoro-3-pyridyl)-2-{2-[(1r,4R)-4-methoxycyclohexyl]ethylamino}-1-ethanol] | < 25 | 50 to 75 |  |  |  |
| O[C@@H](c1cccc(F)c1)C12CCC(COCc3ccc(F)cc3)(CC1)N2 [Compound 438, (S)-(m-fluorophenyl)(4-{[(p-fluorophenyl)methoxy]methyl}-7-azabicyclo[[2.2.1]]hept-1-yl)methanol] | < 25 | < 25 |  |  |  |
| CCCCNC[C@H](O)c1cccc(O)c1F [Compound 87, (R)-2-(butylamino)-1-(2-fluoro-3-hydroxyphenyl)-1-ethanol] |  |  | 25 to 50 | > 75 |  |

| Structure (SMILES) | Emax at 10 µM (L6-myotubes [1]; [3]) [%] | Emax at 10 µM (L6-myotubes [2]; [4]) [%] | Emax at 10 µM (L6-myotubes [1]; [5]) [%] | Emax at 10 µM (L6-myotubes [2]; [6]) [%] | glucose uptake (L6-myotubes [2]; L6-myotubes, FIGS. 2a-2d) |
| --- | --- | --- | --- | --- | --- |
| CC(C)(C[C@H]1CC[C@@H](O)CC1)NC[C@H](O)c1cccc(F)c1 [Compound 302, (R)-2-{1,1-dimethyl-2-[(1s,4S)-4-hydroxycyclohexyl]ethylamino}-1-(m-fluorophenyl)-1-ethanol] | < 25 | 50 to 75 |  |  |  |
| CN([C@H]1CC[C@@H](CC(C)(C)NC[C@H](O)c2cncc(F)c2)CC1)S(C)(=O)=O [Compound 520] | < 25 | 50 to 75 |  |  |  |
| O[C@H](c1cccc(F)c1)C12CCC(COCc3ccc(OC(F)(F)F)cc3)(CC1)N2 [Compound 488] | < 25 | < 25 |  |  |  |
| CC(C)(CC[C@H]1CC[C@H](N)CC1)NC[C@H](O)c1cncc(F)c1 [Compound 358] | < 25 | 25 to 50 |  |  |  |
| CCC[C@@H](C)NC[C@H](O)c1ccc(O)cc1 [Compound 27, (R)-2-[(R)-1-methylbutylamino]-1-(p-hydroxyphenyl)-1-ethanol] |  |  | 25 to 50 | > 75 |  |
| CC12CC(C1)[C@@H]([C@@H](O)c1cccc(Cl)c1)N2 [Compound 207] | < 25 | 25 to 50 |  |  |  |
| CCCCNCC(O)c1cc(F)c(N)c(F)c1 (stereo not shown) [Compound 37, 1-(4-amino-3,5-difluorophenyl)-2-(butylamino)-1-ethanol] |  |  | > 75 | > 75 |  |
| CCC[C@H]1CC[C@H]([C@H](O)c2cccc(O)c2)N1 [Compound 125, m-{(R)-[(2R,5S)-5-propyl-2-pyrrolidinyl] hydroxymethyl}phenol] |  |  | < 25 | 50 to 75 |  |
| CNS(=O)(=O)[C@H]1CC[C@H](CC(C)(C)NC[C@H](O)c2cccc(F)c2)CC1 [Compound 476] | 25 to 50 | > 75 |  |  |  |
| CC(C)(C[C@H]1CC[C@@H](N)CC1)NC[C@@H](O)c1cccc(C#N)n1 [Compound 416] | < 25 | 50 to 75 |  |  |  |
| O[C@@H](c1cccc(F)c1)[C@H]1CCC2(CCCC2)N1 [Compound 169] |  |  | < 25 | < 25 |  |
| CCC[C@@H]1CCCC[C@H]([C@@H](O)c2cncc(F)c2)N1 [Compound 218, (S)-[(2R,7R)-7-propyl-2-azepanyl](5-fluoro-3-pyridyl)methanol] | < 25 | < 25 |  |  |  |
| CC12CCC([C@H](O)c3cccc(F)c3)(CC1)N2 [Compound 179, (R)-(m-fluorophenyl)(4-methyl-7-azabicyclo[[2.2.1]]hept-1-yl)methanol] |  |  | < 25 | 50 to 75 |  |
| CC(C)(C[C@H]1CC[C@H](O)CC1)NC[C@H](O)c1cccc(F)c1 [Compound 300, (R)-2-{1,1-dimethyl-2-[(1r,4R)-4-hydroxycyclohexyl]ethylamino}-1-(m-fluorophenyl)-1-ethanol] | < 25 | > 75 |  |  |  |
| CCC12CCC([C@@H](O)c3cccc(F)c3)(CC1)N2 [Compound 182, (S)-(m-fluorophenyl)(4-propyl-7-azabicyclo[[2.2.1]]hept-1-yl)methanol] |  |  | < 25 | < 25 |  |
| CCCCNCC(O)c1ccc(O)cc1 (stereo not shown) [Compound 1, 2-(butylamino)-1-(p-hydroxyphenyl)-1-ethanol] |  |  |  | > 75 |  |
| Oc1ccc(C(O)CNCCCC(F)(F)F)cc1 (stereo not shown) [Compound 31, 1-(p-hydroxyphenyl)-2-(4,4,4-trifluorobutylamino)-1-ethanol] |  |  |  | 50 to 75 |  |
| CC(C)NCC(O)c1ccc(O)c(O)c1 (stereo not shown) [isoprenaline, reference compound] |  |  |  |  | full glucose uptake response |
| CN([C@H]1CC[C@H](CC(C)(C)NC[C@H](O)c2cccc(F)c2)CC1)S(C)(=O)=O [Compound 499, (R)-2-{1,1-dimethyl-2-[(1r,4R)-4-(N-mesyl-N-methylamino)cyclohexyl]ethylamino}-1-(m-fluorophenyl)-1-ethanol] |  | 25 to 50 |  |  |  |
